The source of these data is publication PMC10824666 (Nature Cancer, 2023).

Assay in all cases: biochemical
What all share (design): Eurofins DiscoverX kinase panel, competitive binding assay at 1 uM, percent of DMSO control
Holding throughout (conditions): competitive binding, percent of DMSO control

For one experiment, the target named is T1, CHK1 (Homo sapiens, UniProt O14757).
T1 construct: gene CHEK1
T1 sequence (O14757 1-476): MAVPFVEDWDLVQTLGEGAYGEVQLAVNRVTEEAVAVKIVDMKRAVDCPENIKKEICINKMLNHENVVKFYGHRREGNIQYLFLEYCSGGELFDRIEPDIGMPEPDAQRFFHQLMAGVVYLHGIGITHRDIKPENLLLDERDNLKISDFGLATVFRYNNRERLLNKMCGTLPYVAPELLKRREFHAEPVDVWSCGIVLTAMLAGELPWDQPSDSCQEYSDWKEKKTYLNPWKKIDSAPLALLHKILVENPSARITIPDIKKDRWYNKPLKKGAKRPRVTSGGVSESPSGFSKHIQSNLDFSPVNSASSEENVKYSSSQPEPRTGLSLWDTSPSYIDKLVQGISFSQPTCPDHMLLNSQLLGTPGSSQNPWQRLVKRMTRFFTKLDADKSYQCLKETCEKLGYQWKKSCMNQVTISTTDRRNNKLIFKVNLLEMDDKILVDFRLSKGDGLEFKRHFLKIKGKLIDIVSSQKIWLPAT
The procedure:
(§1) Extended Data Fig. 3 In vitro characterization of potent and selective KIF18A inhibitors. a, KIF18A compounds (1 µM) were assessed across a panel of kinases (n = 96) by a competitive binding assay. Graph presented as percentage of control (POC); dashed line indicates POC value of 30 (n = 1 experiment). b, Tubulin polymerization analysis. Profile of KIF18A compounds (10 µM) relative to DMSO, paclitaxel (5 µM, tubulin stabilizer), or nocodazole (5 µM, tubulin destabilizer). Graphs presented as tubulin fluorescence signal at 440 nm expressed as arbitrary units (a.u.) versus time (min) with area-under-the-curve (AUC) values (n = 1 or 3 independent experiments). c, Mitotic spindle image analysis. […] Representative images were captured with x40 objective (scale bar = 10 µm) (n = 1 experiment). d-f, KIF18A compound effects on HeLa cells. d, Cells were treated for 96 h with DMSO or KIF18A compounds at the indicated concentrations. KIF18A compound concentration-response profiles presented as count relative to the percentage of DMSO control (POC) with count EC50 values (n = 2 independent experiments in duplicate). e, KIF18A protein localization in cells after treatment for 6 hours with DMSO or AM-1882 (0.05 µM). Cells stained to detect DNA, KIF18A, and centrin-3. Representative images of mitotic cells (n = 3 per group) were captured with x60 objective (scale bar = 5 µm) and graphs of line scan measurements were obtained for DNA, KIF18A, and centrin-3 channels expressed as fluorescence intensity (a.u.) versus distance (µm) (n = 1 experiment). f, Mitotic cell fate imaging analysis. HeLa Kyoto cells co-expressing α-tubulin-EGFP and H2B-mCherry proteins released from a G1S block in media containing DMSO or AM-1882 (0.2 µM). Analysis was performed on cells entering the first mitosis (n = 40 cells per group). Graph presented as time in mitosis (h) versus mitotic cell fate, either complete cell division (CCD) or death in mitosis (DiM). Classified cells exiting mitosis by the number of daughter cells and cell death in […] We screened a small-molecule library of diverse compounds for selective inhibitors of KIF18A MT-ATPase motor activity. Two compound hits were discovered that phenocopied the effects of KIF18A KD in cells; these hits are structurally distinct from the KIF18A inhibitor BTB-1 (refs. [27],[28]). […] However, the potency of the KIF18A inhibitors was unaffected by varying ATP and MT concentrations (Extended Data Fig. 2d). This supports our proposed model in which KIF18A inhibitors occupy an allosteric pocket formed by motor helices α4 and α6 close to the motor MT-binding surface. To screen for potential off-target interactions with essential mitotic kinases, three of the KIF18A compounds were profiled against a large panel of kinases. […] We next investigated whether our KIF18A inhibitors affected tubulin polymerization in vitro in the absence of the KIF18A motor. All four KIF18A compounds had tubulin-polymerization profiles similar to that of the DMSO control and distinct from those of the paclitaxel (MT stabilizer) and nocodazole (MT destabilizer) co

In the next experiment the target is EPHA2 (Homo sapiens, UniProt P29317). The procedure:
as §1

A further experiment deals with T2, MEK5 (Homo sapiens, UniProt Q13163).
T2 construct: gene MAP2K5
T2 sequence (Q13163 1-448): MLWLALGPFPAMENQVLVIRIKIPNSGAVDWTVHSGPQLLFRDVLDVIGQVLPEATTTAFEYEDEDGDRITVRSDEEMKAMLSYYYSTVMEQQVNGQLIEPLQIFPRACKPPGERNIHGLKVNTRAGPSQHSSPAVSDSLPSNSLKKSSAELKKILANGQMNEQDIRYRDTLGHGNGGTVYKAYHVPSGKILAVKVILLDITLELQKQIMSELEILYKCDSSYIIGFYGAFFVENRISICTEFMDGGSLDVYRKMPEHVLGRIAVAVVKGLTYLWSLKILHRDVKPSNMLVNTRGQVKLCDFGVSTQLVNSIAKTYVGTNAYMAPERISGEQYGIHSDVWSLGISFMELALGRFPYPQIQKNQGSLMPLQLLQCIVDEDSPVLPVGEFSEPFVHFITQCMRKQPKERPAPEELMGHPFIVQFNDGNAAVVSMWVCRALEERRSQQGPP
The method, then: as §1

A further experiment addresses STK32B (Homo sapiens, UniProt Q9NY57). The method, then:
as §1

A further experiment concerns the target TNIK (Homo sapiens, UniProt Q9UKE5). The procedure: as §1
For the next experiment, the target named is T3, Trk-A (Homo sapiens, UniProt P04629).
T3 construct: gene NTRK1
T3 sequence (P04629 whole entry): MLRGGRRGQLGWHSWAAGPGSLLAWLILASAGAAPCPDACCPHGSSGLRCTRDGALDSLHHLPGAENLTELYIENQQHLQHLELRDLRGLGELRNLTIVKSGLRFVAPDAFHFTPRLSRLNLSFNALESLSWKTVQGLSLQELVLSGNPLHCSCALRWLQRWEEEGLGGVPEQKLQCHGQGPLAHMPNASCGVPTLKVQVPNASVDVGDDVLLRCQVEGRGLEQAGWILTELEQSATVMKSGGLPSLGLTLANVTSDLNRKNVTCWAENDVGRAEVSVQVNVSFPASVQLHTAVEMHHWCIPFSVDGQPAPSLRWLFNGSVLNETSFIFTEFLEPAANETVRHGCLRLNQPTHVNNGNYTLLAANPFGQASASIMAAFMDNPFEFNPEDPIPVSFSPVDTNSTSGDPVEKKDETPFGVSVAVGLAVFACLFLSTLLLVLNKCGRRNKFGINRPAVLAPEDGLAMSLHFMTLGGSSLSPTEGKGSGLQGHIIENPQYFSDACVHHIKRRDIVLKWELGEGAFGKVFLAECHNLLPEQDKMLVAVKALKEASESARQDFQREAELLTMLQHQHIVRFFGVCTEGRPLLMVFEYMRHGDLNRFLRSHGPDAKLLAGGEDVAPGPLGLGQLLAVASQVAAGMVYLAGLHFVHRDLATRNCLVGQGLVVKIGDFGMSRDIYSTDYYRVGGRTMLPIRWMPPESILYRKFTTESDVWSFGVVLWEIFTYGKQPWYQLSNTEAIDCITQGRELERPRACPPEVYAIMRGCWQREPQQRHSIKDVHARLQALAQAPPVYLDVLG
The method, then: as §1

The target of a further experiment is c-MET (Homo sapiens, UniProt P08581). The method, then:
as §1

The mark [1] stands for this setting: read-out: Kinome Profiling performed by Eurofins DiscoverX / AM-0277, 1.0 µM / POC.
[2] abbreviates: read-out: Kinome Profiling performed by Eurofins DiscoverX / AM-1882, 1.0 µM / POC.
Setting [3] is: read-out: Kinome Profiling performed by Eurofins DiscoverX / AM-5308, 1.0 µM / POC.

Each structure is given as a SMILES string. Like-named read-outs stand apart in the source and are kept apart here.

Chain of STK32B (Q9NY57 whole entry): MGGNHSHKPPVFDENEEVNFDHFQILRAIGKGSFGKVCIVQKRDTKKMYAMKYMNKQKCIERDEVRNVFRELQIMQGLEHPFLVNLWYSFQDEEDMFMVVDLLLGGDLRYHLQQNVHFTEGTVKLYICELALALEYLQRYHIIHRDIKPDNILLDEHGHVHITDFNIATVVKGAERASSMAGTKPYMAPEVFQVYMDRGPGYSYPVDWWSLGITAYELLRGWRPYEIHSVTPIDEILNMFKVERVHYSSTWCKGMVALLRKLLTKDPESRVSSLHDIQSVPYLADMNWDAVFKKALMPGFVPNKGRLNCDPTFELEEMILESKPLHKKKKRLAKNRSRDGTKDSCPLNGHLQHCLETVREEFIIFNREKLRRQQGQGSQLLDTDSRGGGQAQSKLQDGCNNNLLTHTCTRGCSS
Chain of TNIK (Q9UKE5 whole entry): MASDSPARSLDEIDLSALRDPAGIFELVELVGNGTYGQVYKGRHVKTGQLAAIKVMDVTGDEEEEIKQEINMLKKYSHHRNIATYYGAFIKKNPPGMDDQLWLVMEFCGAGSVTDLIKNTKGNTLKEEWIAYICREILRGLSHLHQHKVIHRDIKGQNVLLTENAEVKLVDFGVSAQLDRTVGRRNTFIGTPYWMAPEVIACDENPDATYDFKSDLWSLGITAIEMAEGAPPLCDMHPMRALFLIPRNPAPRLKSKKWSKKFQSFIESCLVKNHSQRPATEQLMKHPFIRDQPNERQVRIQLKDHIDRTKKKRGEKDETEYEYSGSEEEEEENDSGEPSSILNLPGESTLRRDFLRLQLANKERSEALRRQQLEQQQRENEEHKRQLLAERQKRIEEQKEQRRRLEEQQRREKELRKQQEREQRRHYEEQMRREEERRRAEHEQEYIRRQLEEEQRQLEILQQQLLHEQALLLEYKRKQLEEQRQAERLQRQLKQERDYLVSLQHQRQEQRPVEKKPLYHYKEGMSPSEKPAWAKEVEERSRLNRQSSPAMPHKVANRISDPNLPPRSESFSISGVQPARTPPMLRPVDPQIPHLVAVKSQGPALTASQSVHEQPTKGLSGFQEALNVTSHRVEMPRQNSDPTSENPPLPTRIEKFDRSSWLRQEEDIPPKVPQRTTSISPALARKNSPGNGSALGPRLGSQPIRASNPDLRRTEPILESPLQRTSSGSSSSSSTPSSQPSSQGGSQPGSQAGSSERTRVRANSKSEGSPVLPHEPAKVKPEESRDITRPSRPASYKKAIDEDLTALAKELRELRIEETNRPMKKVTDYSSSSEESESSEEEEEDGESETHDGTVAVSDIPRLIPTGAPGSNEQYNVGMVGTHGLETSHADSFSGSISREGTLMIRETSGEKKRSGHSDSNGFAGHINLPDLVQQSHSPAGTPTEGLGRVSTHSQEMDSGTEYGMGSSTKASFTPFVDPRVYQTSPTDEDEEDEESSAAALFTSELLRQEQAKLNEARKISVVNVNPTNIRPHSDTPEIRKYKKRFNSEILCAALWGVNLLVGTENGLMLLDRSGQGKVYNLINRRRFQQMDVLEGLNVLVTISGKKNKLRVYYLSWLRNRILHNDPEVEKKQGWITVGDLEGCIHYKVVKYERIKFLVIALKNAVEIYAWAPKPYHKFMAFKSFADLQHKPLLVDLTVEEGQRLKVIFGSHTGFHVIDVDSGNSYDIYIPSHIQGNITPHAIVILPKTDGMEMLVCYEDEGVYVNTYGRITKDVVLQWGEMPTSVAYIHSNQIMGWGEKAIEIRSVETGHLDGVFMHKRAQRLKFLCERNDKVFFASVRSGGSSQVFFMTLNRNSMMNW
Chain of c-MET (P08581 whole entry): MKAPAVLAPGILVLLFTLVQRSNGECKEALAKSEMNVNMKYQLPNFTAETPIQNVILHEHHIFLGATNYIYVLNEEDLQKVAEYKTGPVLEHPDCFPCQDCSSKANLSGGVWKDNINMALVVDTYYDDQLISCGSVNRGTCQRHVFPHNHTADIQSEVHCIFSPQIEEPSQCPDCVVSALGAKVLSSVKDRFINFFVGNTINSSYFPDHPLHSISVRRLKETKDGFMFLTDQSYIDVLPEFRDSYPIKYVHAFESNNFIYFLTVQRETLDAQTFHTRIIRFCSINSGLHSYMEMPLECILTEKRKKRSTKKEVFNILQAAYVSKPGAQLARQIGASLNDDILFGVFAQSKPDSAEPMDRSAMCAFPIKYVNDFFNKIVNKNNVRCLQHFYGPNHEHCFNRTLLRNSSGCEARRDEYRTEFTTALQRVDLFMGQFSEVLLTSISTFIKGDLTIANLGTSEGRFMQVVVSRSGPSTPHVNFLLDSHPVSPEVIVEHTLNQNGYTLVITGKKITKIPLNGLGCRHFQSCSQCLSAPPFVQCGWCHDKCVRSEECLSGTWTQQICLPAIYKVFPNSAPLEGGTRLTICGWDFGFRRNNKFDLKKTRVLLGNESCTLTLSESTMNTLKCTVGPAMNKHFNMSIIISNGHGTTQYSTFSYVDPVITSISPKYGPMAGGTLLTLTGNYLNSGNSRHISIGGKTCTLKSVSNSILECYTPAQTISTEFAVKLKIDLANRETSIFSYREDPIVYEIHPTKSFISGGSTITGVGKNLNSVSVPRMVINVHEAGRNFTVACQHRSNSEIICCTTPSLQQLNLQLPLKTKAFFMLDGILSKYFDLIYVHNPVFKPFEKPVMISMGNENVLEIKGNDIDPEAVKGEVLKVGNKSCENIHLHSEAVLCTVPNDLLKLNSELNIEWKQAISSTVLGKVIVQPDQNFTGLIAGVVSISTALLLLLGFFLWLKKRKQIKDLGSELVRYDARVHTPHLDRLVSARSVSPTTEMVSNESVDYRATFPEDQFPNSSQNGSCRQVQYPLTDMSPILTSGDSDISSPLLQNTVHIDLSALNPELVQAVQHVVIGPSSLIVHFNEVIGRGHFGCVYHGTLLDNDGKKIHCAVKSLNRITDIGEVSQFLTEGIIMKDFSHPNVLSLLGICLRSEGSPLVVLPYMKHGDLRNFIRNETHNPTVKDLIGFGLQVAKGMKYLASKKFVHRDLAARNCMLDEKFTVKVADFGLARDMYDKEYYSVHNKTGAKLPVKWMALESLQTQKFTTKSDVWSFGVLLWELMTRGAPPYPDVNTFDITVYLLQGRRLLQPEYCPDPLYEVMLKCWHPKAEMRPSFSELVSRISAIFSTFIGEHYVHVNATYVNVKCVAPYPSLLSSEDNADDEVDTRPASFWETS
Chain of EPHA2 (P29317 whole entry): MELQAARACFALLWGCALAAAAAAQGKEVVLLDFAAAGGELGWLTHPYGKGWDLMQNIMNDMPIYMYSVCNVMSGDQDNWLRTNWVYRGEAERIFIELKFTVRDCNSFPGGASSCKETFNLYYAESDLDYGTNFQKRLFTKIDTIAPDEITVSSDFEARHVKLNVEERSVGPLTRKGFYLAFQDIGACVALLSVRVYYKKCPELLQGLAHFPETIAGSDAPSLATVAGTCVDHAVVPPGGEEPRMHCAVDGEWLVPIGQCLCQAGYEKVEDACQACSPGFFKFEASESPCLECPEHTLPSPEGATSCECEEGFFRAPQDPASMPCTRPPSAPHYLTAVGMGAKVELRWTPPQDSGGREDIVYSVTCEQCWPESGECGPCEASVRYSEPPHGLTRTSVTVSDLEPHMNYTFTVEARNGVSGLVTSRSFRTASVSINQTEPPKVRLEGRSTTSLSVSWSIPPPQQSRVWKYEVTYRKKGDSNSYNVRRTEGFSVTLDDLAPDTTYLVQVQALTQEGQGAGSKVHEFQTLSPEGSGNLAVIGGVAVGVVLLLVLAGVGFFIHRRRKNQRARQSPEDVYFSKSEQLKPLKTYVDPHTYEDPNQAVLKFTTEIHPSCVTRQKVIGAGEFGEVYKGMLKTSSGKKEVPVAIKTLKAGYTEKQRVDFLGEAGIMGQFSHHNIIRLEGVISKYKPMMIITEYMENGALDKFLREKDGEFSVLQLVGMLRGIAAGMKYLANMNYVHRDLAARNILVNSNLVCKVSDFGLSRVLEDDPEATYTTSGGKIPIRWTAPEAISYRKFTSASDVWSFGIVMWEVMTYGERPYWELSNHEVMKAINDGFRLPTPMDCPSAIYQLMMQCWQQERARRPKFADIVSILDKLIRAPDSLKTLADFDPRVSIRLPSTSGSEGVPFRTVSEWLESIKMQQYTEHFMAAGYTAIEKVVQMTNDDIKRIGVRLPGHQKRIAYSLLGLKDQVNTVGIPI

For `CC(C)(CO)Nc1ccc(C(=O)Nc2cccc(S(=O)(=O)C3CCCC3)c2)c(N2CCC3(CC2)CC3)n1` [AM-0277], the remaining activity at 1 µM on CHK1 (setting [1]) amounted to 100%; on EPHA2 (setting [1]) it was 80%; on MEK5 (setting [1]) it was 86%; on STK32B (setting [1]), 100%; at TNIK (setting [1]), 88%; on Trk-A (setting [1]) it was 40%. In addition, the remaining activity at 1 µM at c-MET (setting [1]) stood at 89%.
Take `CC(C)(C)NS(=O)(=O)c1cccc(NC(=O)c2ccc(S(=O)(=O)NC(C)(C)C)cc2N2CCC3(CC2)CC3)c1` [AM-1882]: the remaining activity at 1 µM was determined as 100% on CHK1 (setting [2]); 99.5% on EPHA2 (setting [2]); 38.5% at MEK5 (setting [2]); 100% on STK32B (setting [2]); 82% on TNIK (setting [2]); 54.5% on Trk-A (setting [2]). Besides, the remaining activity at 1 µM on c-MET (setting [2]) turned out to be 100%.
In the case of `C[C@@H]1CN(c2cccc(NC(=O)c3ccc(NS(=O)(=O)CCO)cc3N3CCC4(CC3)CC4)n2)CCO1` [AM-5308], the remaining activity at 1 µM at CHK1 (setting [3]) came out at 100%; on EPHA2 (setting [3]), 92.5%; on MEK5 (setting [3]) it was 99.5%; at STK32B (setting [3]), 96%; at TNIK (setting [3]) it was 52.5%; on Trk-A (setting [3]), 17.5%. Also, the remaining activity at 1 µM at c-MET (setting [3]) came to 92%.
